# Tests used:
# Assay type in all cases: functional
# [1] = tested on: SN12C; test: Growth inhibition of human SN12C cells assessed as cell growth at 0.01 uM after 48 hrs by SRB assay relative to control; details: read-out: Activity
# [2] = tested on: MDA-MB-231; test: Growth inhibition of human MDA-MB-231/ATCC cells assessed as cell growth at 0.01 uM after 48 hrs by SRB assay relative to control; details: MDA-MB-231, 48 h, read-out: Activity
# [3] = tested on: HOP-62; test: Growth inhibition of human HOP62 cells assessed as cell growth at 0.1 uM after 48 hrs by SRB assay relative to control; details: HOP-62, 48 h, read-out: Activity
# [4] = tested on: HOP-92; test: Growth inhibition of human HOP92 cells assessed as cell growth at 0.1 uM after 48 hrs by SRB assay relative to control; details: HOP-92, 48 h, read-out: Activity
# [5] = tested on: KM12; test: Growth inhibition of human KM12 cells assessed as cell growth at 0.1 uM after 48 hrs by SRB assay relative to control; details: KM12, 48 h, read-out: Activity
# [6] = tested on: MDA-MB-231; test: Growth inhibition of human MDA-MB-231/ATCC cells assessed as cell growth at 0.1 uM after 48 hrs by SRB assay relative to control; details: MDA-MB-231, 48 h, read-out: Activity
# [7] = tested on: NCI-H322M; test: Growth inhibition of human NCI-H322M cells assessed as cell growth at 1 uM after 48 hrs by SRB assay relative to control; details: read-out: Activity
# [8] = tested on: KM12; test: Growth inhibition of human KM12 cells assessed as cell growth at 1 uM after 48 hrs by SRB assay relative to control; details: KM12, 48 h, read-out: Activity
# [9] = tested on: SK-MEL-28; test: Growth inhibition of human SK-MEL-28 cells assessed as cell growth at 1 uM after 48 hrs by SRB assay relative to control; details: SK-MEL-28, 48 h, read-out: Activity
# [10] = tested on: OVCAR-4; test: Growth inhibition of human OVCAR4 cells assessed as cell growth at 1 uM after 48 hrs by SRB assay relative to control; details: OVCAR-4, 48 h, read-out: Activity
# [11] = tested on: 786-0; test: Growth inhibition of human 786-0 cells assessed as cell growth at 1 uM after 48 hrs by SRB assay relative to control; details: 786-0, 48 h, read-out: Activity
# [12] = tested on: Hs-578T; test: Growth inhibition of human Hs 578T cells assessed as cell growth at 1 uM after 48 hrs by SRB assay relative to control; details: read-out: Activity
# [13] = tested on: HOP-62; test: Growth inhibition of human HOP62 cells assessed as cell growth at 10 uM after 48 hrs by SRB assay relative to control; details: HOP-62, 48 h, read-out: Activity
# [14] = tested on: SF-295; test: Growth inhibition of human SF295 cells assessed as cell growth at 10 uM after 48 hrs by SRB assay relative to control; details: SF-295, 48 h, read-out: Activity
# [15] = tested on: MDA-MB-435; test: Growth inhibition of human MDA-MB-435 cells assessed as cell growth at 10 uM after 48 hrs by SRB assay relative to control; details: MDA-MB-435, 48 h, read-out: Activity
# [16] = tested on: UACC-62; test: Growth inhibition of human UACC62 cells assessed as cell growth at 10 uM after 48 hrs by SRB assay relative to control; details: UACC-62, 48 h, read-out: Activity
# [17] = tested on: IGROV-1; test: Growth inhibition of human IGROV1 cells assessed as cell growth at 10 uM after 48 hrs by SRB assay relative to control; details: IGROV-1, 48 h, read-out: Activity
# [18] = tested on: ACHN; test: Growth inhibition of human ACHN cells assessed as cell growth at 10 uM after 48 hrs by SRB assay relative to control; details: read-out: Activity
# [19] = tested on: PC-3; test: Growth inhibition of human PC3 cells assessed as cell growth at 10 uM after 48 hrs by SRB assay relative to control; details: PC-3, 48 h, read-out: Activity
# [20] = tested on: MCF7; test: Growth inhibition of human MCF7 cells assessed as cell growth at 10 uM after 48 hrs by SRB assay relative to control; details: MCF7, 48 h, read-out: Activity
# [21] = tested on: MDA-MB-231; test: Growth inhibition of human MDA-MB-231/ATCC cells assessed as cell growth at 10 uM after 48 hrs by SRB assay relative to control; details: MDA-MB-231, 48 h, read-out: Activity
# [22] = tested on: HT-29; test: Growth inhibition of human HT-29 cells assessed as cell growth at 100 uM after 48 hrs by SRB assay relative to control; details: HT-29, 48 h, read-out: Activity
# [23] = tested on: LOX IMVI; test: Growth inhibition of human LOXIMVI cells assessed as cell growth at 100 uM after 48 hrs by SRB assay relative to control; details: read-out: Activity
# [24] = tested on: M14; test: Growth inhibition of human M14 cells assessed as cell growth at 100 uM after 48 hrs by SRB assay relative to control; details: M14, 48 h, read-out: Activity
# [25] = tested on: SK-MEL-28; test: Growth inhibition of human SK-MEL-28 cells assessed as cell growth at 100 uM after 48 hrs by SRB assay relative to control; details: SK-MEL-28, 48 h, read-out: Activity
# [26] = tested on: IGROV-1; test: Growth inhibition of human IGROV1 cells assessed as cell growth at 100 uM after 48 hrs by SRB assay relative to control; details: IGROV-1, 48 h, read-out: Activity
# [27] = tested on: LOX IMVI; test: Cytotoxicity against human LOXIMVI cells assessed as growth inhibition after 48 hrs by SRB assay
# [28] = tested on: MDA-MB-435; test: Cytotoxicity against human MDA-MB-435 cells assessed as growth inhibition after 48 hrs by SRB assay; details: MDA-MB-435, 48 h
# [29] = tested on: 786-0; test: Cytotoxicity against human 786-0 cells assessed as growth inhibition after 48 hrs by SRB assay; details: 786-0, 48 h
# [30] = tested on: UO-31; test: Cytotoxicity against human UO31 cells assessed as growth inhibition after 48 hrs by SRB assay; details: UO-31, 48 h
# [31] = tested on: PC-3; test: Cytotoxicity against human PC3 cells assessed as growth inhibition after 48 hrs by SRB assay; details: PC-3, 48 h
# [32] = tested on: Hs-578T; test: Cytotoxicity against human Hs 578T cells assessed as growth inhibition after 48 hrs by SRB assay
# [33] = read-out: LC50 (the source's name)
# [34] = read-out: pLC50 (the source's name) (converted)
smiles,measurement,setting,value
COc1ccc2c(c1)CCc1n[nH]c(-c3cc(OC)c(OC)c(OC)c3)c1-2,growth at 0.01 µM,[1],39%
same,growth at 0.01 µM,[2],34%
same,growth at 0.1 µM,[3],6%
same,growth at 0.1 µM,[4],30%
same,growth at 0.1 µM,[5],10%
same,growth at 0.1 µM,[6],29%
same,growth at 1 µM,[7],42%
same,growth at 1 µM,[8],5%
same,growth at 1 µM,[9],54%
same,growth at 1 µM,[10],40%
same,growth at 1 µM,[11],14%
same,growth at 1 µM,[12],18%
same,growth at 10 µM,[13],3%
same,growth at 10 µM,[14],-5%
same,growth at 10 µM,[15],-38%
same,growth at 10 µM,[16],10%
same,growth at 10 µM,[17],20%
same,growth at 10 µM,[18],15%
same,growth at 10 µM,[19],14%
same,growth at 10 µM,[20],5%
same,growth at 10 µM,[21],33%
same,growth at 100 µM,[22],-72%
same,growth at 100 µM,[23],-91%
same,growth at 100 µM,[24],-66%
same,growth at 100 µM,[25],-66%
same,growth at 100 µM,[26],-33%
same,GI50,[27]; read-out: GI50,< 0.01 µM
same,CC50,[27]; [33],38.3 µM
same,TGI,[27]; read-out: TGI,11.8 µM
same,GI50,[27]; read-out: pGI50 (converted),< 0.01 µM
same,CC50,[27]; [34],38 µM
same,TGI,[27]; read-out: pTGI (converted),11.7 µM
same,GI50,[28]; read-out: GI50,< 0.01 µM
same,CC50,[28]; [33],29.8 µM
same,TGI,[28]; read-out: TGI,< 0.01 µM
same,GI50,[28]; read-out: pGI50 (converted),< 0.01 µM
same,CC50,[28]; [34],29.5 µM
same,TGI,[28]; read-out: pTGI,< 0.01 µM
same,GI50,[29]; read-out: GI50,< 0.01 µM
same,CC50,[29]; [33],> 100 µM
same,TGI,[29]; read-out: TGI,11.5 µM
same,GI50,[29]; read-out: pGI50 (converted),< 0.01 µM
same,CC50,[29]; [34],> 100 µM
same,TGI,[29]; read-out: pTGI (converted),11.5 µM
same,GI50,[30]; read-out: GI50,< 0.01 µM
same,CC50,[30]; [33],> 100 µM
same,TGI,[30]; read-out: TGI,17.3 µM
same,GI50,[30]; read-out: pGI50 (converted),< 0.01 µM
same,CC50,[30]; [34],> 100 µM
same,TGI,[30]; read-out: pTGI (converted),17.4 µM
same,GI50,[31]; read-out: GI50,< 0.01 µM
same,CC50,[31]; [33],> 100 µM
same,TGI,[31]; read-out: TGI,17.8 µM
same,GI50,[31]; read-out: pGI50 (converted),< 0.01 µM
same,CC50,[31]; [34],> 100 µM
same,TGI,[31]; read-out: pTGI (converted),17.8 µM
same,GI50,[32]; read-out: GI50,< 0.01 µM
same,LC50,[32]; read-out: LC50,> 100 µM
same,TGI,[32]; read-out: TGI,22.3 µM
same,GI50,[32]; read-out: pGI50 (converted),< 0.01 µM
same,LC50,[32]; read-out: pLC50 (converted),> 100 µM
same,TGI,[32]; read-out: pTGI (converted),22.4 µM

# From ChEMBL document CHEMBL4346757, “Synthesis and biological evaluation of 7-methoxy-1-(3,4,5-trimethoxyphenyl)-4,5-dihydro-2H-benzo[e]indazoles as new colchicine site inhibitors” (Bioorg Med Chem Lett, 2019)
